The values below come from patent publication US10807994B2, “Heterocyclic compounds and uses thereof” (NUVATION BIO INC., priority 2017, dated 2020).

The subject of one test is A549 cells. Description: Cytotoxicity assay (resazurin), A549 cells, 96 hr. The test is classed as cell-based. The following applies: read-out: Cell Viability A549 IC50. The procedure: (§1) A549 (CCL-185; ATCC) and A427 (HTB-53; ATCC), both lung epithelial cell lines were seeded in their respective medium (DMEM/MEM, 10569044/41090101; Gibco) at a cell count of 1500 cells per 100 μL per well in a 96 well edge plate (167425; ThermoFisher). Cells were allowed to grow at 37° C. for 24 hr in 5% CO2 environment (culture conditions) in a Nuaire incubator (humidified). Serially diluted test compounds (100 μL) within the desired testing concentration ranges were added to the culture plate were further incubated in culture conditions for 72 hr and 96 hr for A427 and A549 respectively. The experiment was terminated at the designated incubation time by replacing the medium with 100 μL of 1 mM of resazurin (R7017; Sigma) prepared in respective culture medium, and the plates were further incubated in culture conditions for 4-6 hr. Fluorescence was recorded using a multimodal plate reader (Biotek Synergy Neo) at an excitation wavelength of 535 nm and emission wavelength of 590 nm to obtain relative fluorescence units. Data analysis was done by subtracting the background fluorescence (only medium blank) value from each reading and then normalizing with the vehicle control (DMSO treated cells) to obtain percent survival/proliferation. Percent survival was then subtracted by 100 to get the percent inhibition of proliferation which was used to calculate IC50 values. Potency of compounds in other cell lines (As-Pc-1, Panc-10.05, MDAMB231, A172) was determined in an analogous manner.

In the next test the target is WEE1 kinase enzyme (Homo sapiens (Human), UniProt P30291). Description: WEE1 IC50 determination, LanthaScreen Terbium labeled TR-FRET kinase assay. The test is classed as biochemical. The following applies: WEE1 enzyme 1 nM. The procedure:
IC50 values of compounds against WEE1 kinase enzyme were determined by LanthaScreen™ Terbium Labeled TR-FRET assay. Kinase assays were performed in 1× kinase buffer (# PV6135, Invitrogen, Life Technologies Grand Island, N.Y.) where total reaction volume was 10 μl in low-volume 384-well plates (#4511, Corning). Serially diluted compounds (3-fold) were incubated with WEE1 Enzyme (1 nM) (# PR7373A, Invitrogen, Life Technologies Grand Island, N.Y.) for 10 min, following which a mixture of ATP […] (# A1852, Sigma, St-Louis, Mo.) and fluorescent-PolyGT substrate (200 nM) (# PV3610, Invitrogen, Life Technologies Grand Island, N.Y.) was added and incubated in dark at room temperature for 1 h. After 1 h, 10 μl stop solution containing Terbium labeled antibody (4 nM) (# PV3529, Invitrogen, Life Technologies Grand Island, N.Y.) and EDTA (# E5134, Sigma, St-Louis, Mo.) (20 mM) in TR-FRET dilution buffer (# PV3574, Invitrogen, Life Technologies Grand Island, N.Y.) was added. Readings were taken in a Synergy Neo Plate reader (BioTek, Winooski) at single excitation of 340 nm and Dual emission at 495 nm and 520 nm respectively.
The % activity of test samples was calculated as (Sample−Min)*100/(Max−Min). [Max: DMSO control, complete reaction with enzyme & DMSO and Min: No enzyme & DMSO]. Percent inhibition (100-% activity) was fitted to the “four-parameter logistic model” in XLfit for determination of IC50 values.
For orientation: TR-FRET usually uses a lanthanide donor and a delayed reading to cut background.

Another test relates to A427 cells. Description: Cytotoxicity assay (resazurin), A427 cells, 72 hr. The test is classed as cell-based. The following applies: Homo sapiens, A-427, read-out: Cell Viability A427 IC50. The protocol:
as §1

Read-outs that look alike come from different tables or passages of the source.

Chain of WEE1 kinase enzyme (P30291 whole entry): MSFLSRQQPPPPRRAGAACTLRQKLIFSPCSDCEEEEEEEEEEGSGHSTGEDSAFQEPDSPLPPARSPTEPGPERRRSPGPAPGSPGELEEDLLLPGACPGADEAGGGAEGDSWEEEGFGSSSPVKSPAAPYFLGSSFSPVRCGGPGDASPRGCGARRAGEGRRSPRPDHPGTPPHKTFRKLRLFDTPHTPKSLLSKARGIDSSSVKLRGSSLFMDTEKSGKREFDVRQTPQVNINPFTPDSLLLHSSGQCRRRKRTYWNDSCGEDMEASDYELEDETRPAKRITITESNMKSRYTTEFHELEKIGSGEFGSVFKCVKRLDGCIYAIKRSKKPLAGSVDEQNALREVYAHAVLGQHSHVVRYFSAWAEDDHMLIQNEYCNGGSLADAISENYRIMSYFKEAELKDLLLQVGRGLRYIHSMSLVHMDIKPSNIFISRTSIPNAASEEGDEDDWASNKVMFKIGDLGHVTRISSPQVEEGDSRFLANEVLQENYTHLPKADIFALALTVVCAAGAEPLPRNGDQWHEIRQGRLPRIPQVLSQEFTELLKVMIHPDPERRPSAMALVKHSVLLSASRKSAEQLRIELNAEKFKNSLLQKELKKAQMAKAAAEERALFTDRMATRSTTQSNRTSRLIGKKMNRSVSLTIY

Consider `CN1Cc2cc(Nc3ncc4c(n3)OCN(c3c(Cl)cccc3Cl)C4=O)ccc2C(C)(C)C1` [Example 1.4], for which the IC50 (as a rule, the concentration that inhibits the measured activity by half) with A549 cells (Homo sapiens) turned out to be 5740 nM; at WEE1 kinase enzyme it was 9 nM.
With `O=C1c2cnc(Nc3ccc(N4CCNCC4)c(F)c3)nc2OCN1c1c(Cl)cccc1Cl` [Example 1.29], the IC50 with A549 cells (Homo sapiens) is 8880 nM; on WEE1 kinase enzyme it was 212 nM.
For the compound `Cc1cccc(Cl)c1N1COc2nc(Nc3ccc(N4CCNCC4)cc3)ncc2C1=O` [Example 1.30, 3-(2-chloro-6-methylphenyl)-7-((4-(piperazin-1-yl)phenyl)amino)-2,3-dihydro-4H-pyrimido[5,4-e][1,3]oxazin-4-one], the figures for the IC50 in the test with A549 cells (Homo sapiens) and at WEE1 kinase enzyme were 8650 nM and 325 nM, respectively.
On to `CN1CCN(c2ccc(Nc3cc4c(cn3)C(=O)N(c3c(Cl)cccc3Cl)CO4)cc2)CC1` [Example 1.32, 3-(2,6-dichlorophenyl)-7-(4-(4-methylpiperazin-1-yl)phenylamino)-2H-pyrido[3,4-e][1,3]oxazin-4(3H)-one], for which the values for the IC50 with A549 cells and on WEE1 kinase enzyme were 7430 nM and 366 nM, respectively.
For `CC1(C)CNCc2cc(Nc3ncc4c(n3)SCN(c3c(Cl)cccc3Cl)C4=O)ccc21` [Example 1.231], the figures for the 50% inhibitory concentration (IC50) in the test with A427 cells and at WEE1 kinase enzyme were 2230 nM and 142 nM, respectively.
Take `CN(C)C1CCN(c2ccc(Nc3ncc4c(n3)SCN(c3c(Cl)cccc3Cl)C4=O)cc2)CC1` [Example 1.232]: the IC50 in the test with A427 cells was 1120 nM; at WEE1 kinase enzyme, 273 nM.
Turning to `O=C1c2cnc(Nc3ccc4c(c3)CNCC4)nc2SCN1c1c(Cl)cccc1Cl` [Example 1.233], the 50% inhibitory concentration (IC50) stood at 7210 nM with A427 cells and 165 nM on WEE1 kinase enzyme.
Consider `O=C1c2cnc(Nc3ccc4c(c3)CCNC4)nc2SCN1c1c(Cl)cccc1Cl` [Example 1.234], for which the IC50 in the test with A427 cells worked out at 4840 nM; at WEE1 kinase enzyme, 202 nM.
Turning to `Cc1cc(Nc2ncc3c(n2)SCN(c2c(Cl)cccc2Cl)C3=O)ccc1N1CCNCC1` [Example 1.235], the 50% inhibitory concentration (IC50) with A427 cells was determined as 2900 nM; on WEE1 kinase enzyme, 111 nM.
For `O=C1c2cnc(Nc3ccc(N4CCNCC4)c(Cl)c3)nc2SCN1c1c(Cl)cccc1Cl` [Example 1.236], the results for the half-inhibitory concentration (IC50) in the test with A427 cells and at WEE1 kinase enzyme were 1770 nM and 335 nM, respectively.
For `CC1(C)CNCc2cc(Nc3ncc4c(n3)SCN(c3c(F)cccc3Cl)C4=O)ccc21` [Example 1.238], in that order: 5290 nM and 45 nM.
In the same order, the values of `CN(C)C1CCN(c2ccc(Nc3ncc4c(n3)SCN(c3c(Cl)cccc3Cl)C4=O)cc2C#N)CC1` [Example 1.239] are 765 nM and 508 nM.
On to `CN(C)C1CCN(c2ccc(Nc3ncc4c(n3)SCN(c3c(Cl)cccc3Cl)C4=O)cc2Cl)CC1` [Example 1.240], for which the values for the IC50 with A427 cells and on WEE1 kinase enzyme were 1640 nM and 303 nM, respectively.
Turning to `CN1Cc2cc(Nc3ncc4c(n3)SCN(c3c(Cl)cccc3Cl)C4=O)ccc2C(C)(C)C1` [Example 1.241], the IC50 was determined as 3490 nM in the test with A427 cells and 95 nM on WEE1 kinase enzyme.
In the same order, the values of `COc1cc(Nc2ncc3c(n2)SCN(c2c(Cl)cccc2Cl)C3=O)ccc1N1CCC(N(C)C)CC1` [Example 1.242] are 1620 nM and 331 nM.
As for `CC1CNCCN1c1ccc(Nc2ncc3c(n2)SCN(c2c(Cl)cccc2Cl)C3=O)cc1Cl` (centres unmarked) [Example 1.243], the IC50 with A427 cells was found to be 625 nM; at WEE1 kinase enzyme, 948 nM.
For `CC1CN(c2ccc(Nc3ncc4c(n3)SCN(c3c(Cl)cccc3Cl)C4=O)cc2Cl)CCN1` (centres unmarked) [Example 1.244], in that order: 510 nM and 351 nM.
On to `CN(C)C1CCN(c2ccc(Nc3ncc4c(n3)SCN(c3c(F)cccc3Cl)C4=O)cc2Cl)CC1` [Example 1.245], for which the IC50 with A427 cells came to 1140 nM; at WEE1 kinase enzyme, 297 nM.
In the same order, the values of `CC1(C)NCCc2cc(Nc3ncc4c(n3)SCN(c3c(Cl)cccc3Cl)C4=O)ccc21` [Example 1.246] are 2440 nM and 61 nM.
